Test results from paper PMC10761933, “Acquired and intrinsic resistance to vemurafenib in BRAF^V600E ‐driven melanoma brain metastases” (FEBS Open Bio, 2023).

Key:
subcutaneous A375 tumors = assay: Efficacy against subcutaneous A375 tumors (caliper); type: in vivo; conditions: 25 mg·kg^−1 in WT mice and 10 mg·kg^−1 in Abcb1a/b;Abcg2−/− mice, 13 consecutive days
Experimental: For subcutaneous xenograft models, 30 μL of cell suspension containing 3 × 10^6 A375 cells was injected into both flanks of FVB WT and Abcb1a/b;Abcg2 ^ −/− nude mice. For xenograft MBM models, stereotactic intracranial injections (A375 and Mel57) or intracarotid injections (K1735) of melanoma cells were performed as described previously. For intracranial injections, FVB nude mice were injected intracranially with 2 μL of A375 or Mel57 cell suspension containing 1 × 10^5 cells 2 mm lateral, 1 mm anterior, and 3 mm ventral from the bregma. For intracarotid injections, 1 × 10^5 cells in 100 μL HBSS were injected in the left common carotid artery of C3H/HeN mice. Tumor growth was measured by bioluminescence imaging (BLI) for intracranial tumors and by caliper for subcutaneous tumors. The volume of subcutaneous tumors was calculated in mm^3 using the modified ellipsoid formula (volume = 0.5 × length × width^2). […] Animals were stratified into treatment groups to achieve a similar mean bioluminescence reading within each cohort. […] All subsequent measurements were recorded relative to this first measurement and converted to their log values. Mean ± standard error (SE) values were calculated and plotted in graphs.
For the subcutaneous tumor model, therapy was initiated 2 weeks after implantation, when the tumor volume exceeded 40 mm^3. […] Tumor development was assessed by caliper twice a week. […]

[1] = system: melanoma brain metastases; conditions: MBM patients; cited from earlier work

## CCCS(=O)(=O)Nc1ccc(F)c(C(=O)c2c[nH]c3ncc(-c4ccc(Cl)cc4)cc23)c1F [vemurafenib]
Subcutaneous A375 tumors
  efficacy against subcutaneous A375 tumors, WT vs Abcb1a/b;Abcg2−/− mice: equally effective
[1]
  median overall survival: 4.3 months
